Laboratory results published in patent US9850283B2, “Macrocyclic inhibitors of the PD-1/PD-L1 and CD80(B7-1)/PD-L1 protein/protein interactions” (BRISTOL-MYERS SQUIBB COMPANY, priority 2013, dated 2017).
Where two headings read alike, the source gives them in different places. Positions of bridges follow the written chain, without caps; N, C: chain ends. Non-standard residues stand in square brackets, D forms with d. Residues, ends and D or L forms follow the SMILES beside them. ξ: configuration not given here. Phe(4-CF3) = N[C@@H](Cc1ccc(C(F)(F)F)cc1)C(=O)O; Tyr(3-Br) = N[C@@H](Cc1ccc(O)c(Br)c1)C(=O)O; 1Nal = N[C@@H](Cc1cccc2ccccc12)C(=O)O; Bta = N[C@@H](Cc1csc2ccccc12)C(=O)O; Hyp = O=C(O)[C@@H]1C[C@@H](O)CN1; NMeF = CN[C@@H](Cc1ccccc1)C(=O)O; NMeNle = CCCC[C@H](NC)C(=O)O; hSer = N[C@@H](CCO)C(=O)O; NMeA = CN[C@@H](C)C(=O)O; Orn = NCCC[C@H](N)C(=O)O; Dab = NCC[C@H](N)C(=O)O; Dap = NC[C@H](N)C(=O)O; ξC = NC(CS)C(=O)O; Sar = CNCC(=O)O

Key:
[1] = target: T1, Human PD-L1/PD-1 (Homo sapiens, UniProt Q9NZQ7); test: HTRF PD-1-Ig/PD-L1-His binding assay (human PD-L1)
T1 construct: made in house; host or cells: HEK293T
T1 sequence (Q9NZQ7 with tags, fused parts or gaps): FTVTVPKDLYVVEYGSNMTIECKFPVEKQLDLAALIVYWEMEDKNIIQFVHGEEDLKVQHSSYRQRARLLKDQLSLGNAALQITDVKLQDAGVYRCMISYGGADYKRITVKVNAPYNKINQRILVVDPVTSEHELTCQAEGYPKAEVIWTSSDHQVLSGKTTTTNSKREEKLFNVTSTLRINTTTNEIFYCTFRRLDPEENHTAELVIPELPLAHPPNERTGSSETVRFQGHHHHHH
Outline: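 HTRF read-out: Eu cryptate anti-Ig mAb 1 nM final, APC anti-His mAb 20 nM final, added over the binding reaction. Proteins were PD-1-Ig and PD-L1-His ectodomain fusions. Buffer was dPBS, 0.1% BSA, 0.05% Tween-20.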

[2] = target: T2, LK35.2-hPD-L1 cells / PE-labeled PD-1-Ig (Homo sapiens, UniProt Q9NZQ7); test: LK35.2-hPD-L1 cell binding high-content screening assay; type: cell-based
T2 construct: expressed in transfected cells; host or cells: LK35.2 mouse B cell line
T2 sequence (Q9NZQ7 19-290): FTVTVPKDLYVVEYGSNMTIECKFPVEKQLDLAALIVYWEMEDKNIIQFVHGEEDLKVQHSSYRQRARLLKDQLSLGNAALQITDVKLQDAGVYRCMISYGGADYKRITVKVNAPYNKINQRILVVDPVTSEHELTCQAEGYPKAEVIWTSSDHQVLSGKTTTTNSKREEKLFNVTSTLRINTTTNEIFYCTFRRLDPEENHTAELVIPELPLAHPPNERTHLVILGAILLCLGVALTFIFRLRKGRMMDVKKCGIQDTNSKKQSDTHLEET
Outline: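 Binding of PE-conjugated human PD-1-Ig (1 nM final) to human PD-L1 stably expressed on a mouse B-cell line (LK35.2) was measured by high-content imaging after washes. Compound and labeled PD-1-Ig were co-incubated 1 h at 37 °C with cells in RPMI/10% FCS.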

[3] = cluster symbol, read-out: HTRF IC50 cluster
[4] = cluster symbol, cell line of CBA not given (LK35.2-hPD-L1 or 293T-hPD-L1), read-out: CBA IC50 cluster
[5] = cell binding assay, cell line not given, cluster symbol, read-out: CBA IC50 cluster

Row | IC50 [1, 3] [nM] | IC50 [2, 4] [nM] | IC50 [2, 5] [nM] | IC50 ([1]; read-out: HTRF IC50 value) [nM] | IC50 ([2]; cell line of CBA not given (LK35.2-hPD-L1 or 293T-hPD-L1), read-out: CBA IC50 value) [nM] | SMILES
1 | > 30.5 | > 74.3 | – | – | – | CCCC[C@H]1C(=O)N(C)CC(=O)N[C@@H](CC(=O)O)C(=O)N[C@@H](C(C)C)C(=O)N(C)[C@@H](Cc2ccccc2)C(=O)N[C@@H](Cc2ccc(O)cc2)C(=O)N(C)CC(=O)N[C@@H](Cc2c[nH]c3ccccc23)C(=O)N[C@@H](Cc2ccc(C(F)(F)F)cc2)C(=O)N[C@@H](CC(C)C)C(=O)N[C@H](C(=O)NCC(N)=O)CSCC(=O)N[C@@H](Cc2ccccc2)C(=O)N(C)[C@@H](Cc2ccccc2)C(=O)N1C [Example 3138] ({CH2CO}-F[NMeF][NMeNle][Sar]DV[NMeF]Y[Sar]W[Phe(4-CF3)]LCG-NH2; thioether N-13)
2 | 0.385 to 6.74 | – | 4.78 to 72.9 | – | – | CCCC[C@H]1C(=O)N(C)[C@@H](CCCC)C(=O)N[C@@H](CCN)C(=O)N[C@H](C(=O)NCC(N)=O)CSCC(=O)N[C@@H](Cc2ccc(O)c(Br)c2)C(=O)N(C)[C@@H](C)C(=O)N[C@@H](CC(N)=O)C(=O)N2CCC[C@H]2C(=O)N[C@@H](Cc2cnc[nH]2)C(=O)N[C@@H](CC(C)C)C(=O)N(C)CC(=O)N[C@@H](Cc2c[nH]c3ccccc23)C(=O)N[C@@H](CCN)C(=O)N[C@@H](Cc2c[nH]c3ccccc23)C(=O)N1C [Example 6043] ({CH2CO}-[Tyr(3-Br)][NMeA]NPHL[Sar]W[Dab]W[NMeNle][NMeNle][Dab]CG-NH2; thioether N-14)
3 | – | – | – | 30.3 | 8.86 | CCCC[C@H]1C(=O)N(C)CC(=O)N[C@@H](CC(=O)O)C(=O)N[C@@H]([C@@H](C)CC)C(=O)N(C)[C@@H](Cc2ccccc2)C(=O)N[C@@H](Cc2ccc(O)cc2)C(=O)N(C)CC(=O)N[C@@H](Cc2c[nH]c3ccccc23)C(=O)N[C@@H](Cc2ccc(O)cc2)C(=O)N[C@@H](CC(C)C)C(=O)N[C@H](C(=O)NCC(N)=O)CSCC(=O)N[C@@H](Cc2ccccc2)C(=O)N(C)[C@@H](Cc2ccccc2)C(=O)N1C [Example 3149] (HELM PEPTIDE1{[O=C(C[*:3])[*:2]].F.[meF].[CCCC[C@@H](C(=O)[*:2])N(C)[*:1]].[Sar].D.I.[meF].Y.[Sar].W.Y.L.C.G.[am]}$PEPTIDE1,PEPTIDE1,1:R3-14:R3$$$V2.0)
4 | 0.385 to 6.74 | – | 0.158 to 4.71 | – | – | CCCC[C@H]1C(=O)N(C)[C@@H](CCCC)C(=O)N[C@@H](CCCNC(=N)N)C(=O)NC(C(=O)NCC(N)=O)CSCC(=O)N[C@@H](Cc2ccc(O)cc2)C(=O)N(C)[C@@H](C)C(=O)N[C@@H](CC(N)=O)C(=O)N2CCC[C@H]2C(=O)N[C@@H](Cc2cnc[nH]2)C(=O)N[C@@H](CC(C)C)C(=O)N2C[C@H](O)C[C@H]2C(=O)N[C@@H](Cc2c[nH]c3ccccc23)C(=O)N[C@@H](CCO)C(=O)N[C@@H](Cc2c[nH]c3ccccc23)C(=O)N1C (stereo partly drawn) [Example 9049] ({CH2CO}-Y[NMeA]NPHL[Hyp]W[hSer]W[NMeNle][NMeNle]R[ξC]G-NH2; thioether N-14)
5 | 6.76 to 30.3 | – | 4.78 to 72.9 | – | – | CCCC[C@H]1C(=O)N(C)CC(=O)N[C@@H](CC(=O)O)C(=O)N[C@@H](C(C)C)C(=O)N(C)[C@@H](Cc2ccccc2)C(=O)N[C@@H](Cc2ccc(O)cc2)C(=O)N(C)CC(=O)N[C@@H](Cc2cccc3ccccc23)C(=O)N[C@@H](Cc2ccc(O)cc2)C(=O)N[C@@H](CC(C)C)C(=O)N[C@H](C(=O)NCC(N)=O)CSCC(=O)N[C@@H](Cc2ccccc2)C(=O)N(C)[C@@H](Cc2ccccc2)C(=O)N1C [Example 3515] ({CH2CO}-F[NMeF][NMeNle][Sar]DV[NMeF]Y[Sar][1Nal]YLCG-NH2; thioether N-13)
6 | 6.76 to 30.3 | > 74.3 | – | – | – | CCCC[C@H]1C(=O)N(C)[C@@H](CCCC)C(=O)N[C@@H](CCCN)C(=O)N[C@H](C(=O)NCC(N)=O)CSCC(=O)N[C@@H](Cc2ccc(O)cc2)C(=O)N2CCC[C@H]2C(=O)N[C@@H](CC(=O)O)C(=O)N2CCC[C@H]2C(=O)N[C@@H](CN)C(=O)N[C@@H](CC(=O)O)C(=O)N2C[C@H](O)C[C@H]2C(=O)N[C@@H](Cc2c[nH]c3ccccc23)C(=O)N[C@@H](CCN)C(=O)N[C@@H](Cc2csc3ccccc23)C(=O)N1C [Example 1181] ({CH2CO}-YPDP[Dap]D[Hyp]W[Dab][Bta][NMeNle][NMeNle][Orn]CG-NH2; thioether N-14)
